The assay has as its system IL-1α. Kind of assay: Inhibition of IL-1α induced by SDS in cultured epidermal keratinocytes (ELISA). The format is cell-based. Particulars: Homo sapiens, Keratinocyte; anti-inflammatory benchmark, HEK; read-out: IC50 in inhibiting SDS-induced IL-1α. How it is done: Normal human adult epidermal keratinocytes (HEK) and all cell culture supplies were obtained from Life Technologies Co. (Carlsbad, CA, USA). The cells were grown and then maintained in keratinocyte basal medium 154 ([…]) with added human keratinocyte growth supplements (HKGS) at 37° C. in an atmosphere of 5% CO2 and used between passages 2 to 4. For the experiments, HEK cells were trypsinized, seeded in 96-well plates, and grown to 80% confluence. Specific concentrations of SDS were used for induction of chemokines and cytokines in the cultured HEK cells. IL-1α was induced with 25 μg/mL SDS. The cells were exposed for 16 hours to either SDS alone, or in combination with test articles at various concentrations in triplicates. After incubation, HEK cell supernatants were collected, and levels of interleukins were quantified using Quantikine® ELISA kits from R&D Systems Inc. IL-1α was quantified with catalogue number SLA50 kit. Percent (%) inhibition of IL-1α by the test articles were calculated by comparing to controls from non-SDS-induced cells considered as 0% and from SDS-induced cells considered as 100%. LDH assay using CytoscanTM LDH Assay kit (G-Biosciences Cat. No. 786-324) was performed on all HEK culture supernatants to make sure all tested concentrations had no cytotoxicity, and Kit-supplied lysis buffer was used as positive control.

The record followed here is US12527831B2, “Skin care compositions comprising synergistic blend of sacred lotus and tea plant or sacred lotus and German Chamomile and cosmetic applications thereof” (ISP INVESTMENTS LLC, priority 2019, dated 2026).

The structures appear in SMILES notation.

With `CC(=O)Oc1ccccc1C(=O)O` [Aspirin], the IC50 (as a rule, the midpoint of a concentration-inhibition curve) amounted to 230 µg/mL.
